# Results: patent US20080262047A1, “Ppar-Gamma Agonists for Improvement of Cognitive Function in Apoe4 Negative Patients” (priority 2005, published 2008)
# Entries after “also recorded” stand apart in the source; their conditions may differ.
# Assays:
# [1] = test system: patients diagnosed with mild to moderate AD; test: ADAS-cog (cognitive Alzheimer's Disease Assessment Scale) in Alzheimer's patients; format: in vivo, human; settings: for Cognitive function (ADAS-cog), in words / ADAS-cog change, in words: 24 weeks; for ADAS-cog change from baseline (FIG. 3), in words: course of the study
# Method: (§1) Analysis for the full intent to treat (ITT) population was performed on 511 subjects who were randomly allocated into one of four specific treatment regimes. Genotyping analysis was performed on 63% (323/511) of the ITT population.
# (§2) Patient population included Caucasian males and females between 50-85 years of age who had been diagnosed with mild to moderate AD, were not receiving any medications which could adversely prejudice the study (e.g. PPAR-gamma agonists or conventional AD medicaments) or had any other potentially prejudicial ailments (e.g. diabetes or major psychiatric disorders).
# (§3) Patients received either placebo or one of three dosage levels of extended release rosiglitazone provided once daily (2 mg, 4 mg and 8 mg tablets as described in Example 1). Patients were examined using the cognitive Alzheimer's Disease Assessment Scale (ADAS-cog; for further information see Rosen W G et al. Am. J. Psychiatry. 1984 141:1356-1364) and the Clinician's Interview-Based Impression of Change with caregiver information (CIBIC+; for further information see Knopman D S et al. Neurology 1994 44: 2315-2321); and secondary assessments were performed using: the Disability Assessment for Dementia (DAD, for further information see Gelinas L et al. Am J Occup Ther 1999 53: 471-81) and the Neuropsychiatric Inventory test (NPI, for further information see Cummings et al (1994) Neurology 44, 2308-2314) at the start of the study (baseline) and during the course of the study (after 8, 16 and 24 weeks of treatment).
# (§4) APOE genotype was determined using the TaqMan PCR-based method of McLeod et al 2001 infra.
# (§5) All statistics reflect last observed assessment carried forward (LOCF) measurements.
# It should be noted that in the case of ADAS-cog higher scores indicate reduced cognitive function.
# [2] = test system: patients diagnosed with mild to moderate AD; test: CIBIC+ (Clinician's Interview-Based Impression of Change with caregiver information) in Alzheimer's patients; format: in vivo, human
# Method: as §1, §2, §3, §4, §5
# Higher CIBIC+ scores indicate a greater level of decline with scores below 4 denoting clinical improvement and scores above 4 denoting clinical decline.
# [3] = test system: patients diagnosed with mild to moderate AD; test: Disability Assessment for Dementia (DAD) in Alzheimer's patients; format: in vivo, human; settings: week 24
# Method: as §3
# Similar results were identified using the Disability Assessment for Dementia (DAD) test (Gelinas L et al. Am J Occup Ther 1999 53: 471-81). A prospectively defined test for interaction between APOE4 carriage status and DAD scores at week 24 was significant (P=0.006).
# [4] = test system: patients diagnosed with mild to moderate AD; test: Neuropsychiatric Inventory (NPI) test in Alzheimer's patients; format: in vivo, human; settings: week 24
# Method: as §3
# Similar results were identified using the Neuropsychiatric Inventory (NPI) test (Cummings et al (1994) Neurology 44, 2308-2314). A prospectively defined test for interaction between APOE4 carriage status and NPI scores at week 24 was significant ([…]).
# [5] = test system: dopaminergic cells; settings: acetaldehyde, MPTP; cited from earlier work
# [6] = test system: individuals with mild cognitive impairment; settings: at three years; cited from earlier work
# [7] = test system: patients with moderate to severe AD; settings: cited from earlier work
# [8] = test system: AD and MCI; settings: clinical trial; cited from earlier work
smiles,measurement,setting,value
"CN(CCOc1ccc(CC2SC(=O)NC2=O)cc1)c1ccccn1 (stereo not drawn) [Rosi, 5-[4-[2-(N-methyl-N-(2-pyridyl)amino)ethoxy]benzyl]thiazolidine-2,4-dione]","ADAS-cog change from baseline (FIG. 2), in words","[1]; APOE4+ individuals, 2 mg, 4 mg or 8 mg, after 8 weeks",slight improvement
same,"ADAS-cog change from baseline (FIG. 2), in words","[1]; APOE4+ individuals, 2 mg, after 16 weeks",greater decline than the placebo
same,"ADAS-cog change from baseline (FIG. 2), in words","[1]; APOE4+ individuals, 4 mg and 8 mg, after 16 weeks, versus placebo",the same or better clinical status
same,"ADAS-cog change from baseline (FIG. 2), in words","[1]; APOE4+ individuals, all three treatment arms, after 24 weeks",finish with a clinical decline
same,"Cognitive function (ADAS-cog), in words","[1]; APOE4 heterozygotes (single APOE4 allele), listed as rosiglitazone",do not show any recognisable trend; also recorded: stabilisation in cognitive function
same,"ADAS-cog change, in words","[1]; APOE4 heterozygotes, 2 mg",some decline
same,"ADAS-cog change, in words","[1]; APOE4 heterozygotes, 4 mg and 8 mg",little change
same,"ADAS-cog change from baseline (FIG. 3), in words","[1]; APOE4 heterozygotes, higher doses (4, 8 mg)",remained close to the baseline
same,"Cognitive function (ADAS-cog), in words","[1]; APOE4 homozygotes (two APOE4 alleles), listed as rosiglitazone",relatively large positive change in ADAS-cog scores; also recorded: may experience a clinical decline
same,"ADAS-cog change from baseline (FIG. 3), in words",[1]; APOE4 homozygotes,experienced a clinical decline
same,"ADAS-cog change from baseline (FIG. 2), in words","[1]; APOE4− individuals, 2 mg, 4 mg or 8 mg, all time points (8, 16 and 24 weeks)",marked improvement
same,"Cognitive function (ADAS-cog), in words","[1]; APOE4− patients (no APOE4 allele), listed as rosiglitazone",general trend of improvement in cognitive function; also recorded: clinically relevant improvement in cognitive function relative to placebo
same,"ADAS-cog effect of treatment, in words","[1]; ITT population as a whole, 2, 4, 8 mg, listed as rosiglitazone",trend is not statistically significant; also recorded: non-statistically significant trend to a general improvement
same,"CIBIC+, in words","[2]; APOE4 heterozygotes, 2 mg, 24 weeks",decline
same,"CIBIC+, in words","[2]; APOE4 heterozygotes, 4 mg, 24 weeks",Less decline
same,"CIBIC+, in words","[2]; APOE4 heterozygotes, 8 mg, 24 weeks",slight improvement
same,"CIBIC+, in words","[2]; APOE4 homozygotes, 24 weeks, compared to placebo",slight improvement
same,"CIBIC+, in words","[2]; APOE4− patients, 24 week period",slight improvement
same,"CIBIC+ difference between treatment groups and placebo, in words","[2]; ITT population, 24 weeks",did not lead to a distinguishable difference
same,"CIBIC+ model adjusted, LSMean (SE)","[2]; Table 13a (updated analysis, additional subjects), PGx ITT population, APOE4 copies 1, Rosi 8 mg (n = 23), after 24 weeks",3.70 (0.24)
same,"DAD, in words",[3]; APOE4+ subjects,demonstrated no improvement
same,"DAD, in words",[3]; APOE4− subjects,demonstrated improvement on DAD
same,"NPI, in words",[4]; APOE4+ subjects,demonstrated no improvement
same,"NPI, in words",[4]; APOE4− subjects,demonstrated improvement on NPI
same,Protection of dopaminergic cells from toxic insults,[5],can protect dopaminergic cells
COc1cc2c(cc1OC)C(=O)C(CC1CCN(Cc3ccccc3)CC1)C2 (stereo not drawn) [donepezil],Rate at which patients developed AD,[6],no separation between groups
CC12CC3CC(C)(C1)CC(N)(C3)C2 [memantine],Adverse effects,[7],low incidence of adverse effects
same,Rate of deterioration,[7],significantly retard the rate of deterioration
"CCc1ccc(CCOc2ccc(CC3SC(=O)NC3=O)cc2)nc1 (stereo not drawn) [pioglitazone, 5-[4-[2-(5-ethyl-2-pyridyl)ethoxy]benzyl]thiazolidine-2,4-dione]",Protection of dopaminergic cells from toxic insults,[5],can protect dopaminergic cells
CS(=O)(=O)c1ccc(C2=C(c3ccccc3)C(=O)OC2)cc1 [rofecoxib],Efficacy in AD and MCI,[8],failed to show any efficacy
